Patent publication US20040097567A1, “Pharmaceutical composition” (priority 2001, published 2004)

Test system: diabetic rats, n0STZ
Assay: Oral glucose tolerance test (OGTT) in n0STZ diabetic rats: plasmatic glycaemia and insulinaemia
Assay type: in vivo, rat
Conditions: for Plasmatic insulin / Plasmatic glucose / Plasmatic glucose AUC / Plasmatic insulin AUC: OGTT glucose 2 g/kg, products given 2 hours before, Compound A 12.5 mg/kg, glibenclamide 2 mg/kg; for Plasmatic glucose AUC / Plasmatic insulin AUC: AUC over 0-120 min; for effect on carbohydrate tolerance: acute administration, 12.5 mg/kg compound A or 2 mg/kg glibenclamide
Method: Diabetes is induced in male rats (source: Iffa Credo) by intravenous administration of streptozotocin on the day of birth.
The rats are selected according to the criterion of hyperglycaemia 170±15 mg/dl.
The animals are grouped into 5 rats per batch and divided into 4 batches
The products are administered 2 hours before the glucose tolerance test, at a rate of 12.5 mg/kg for 4-[2-(2,4-dioxothiazolidin-5-yl)ethoxy]benzonitrile, 2 mg/kg for glibenclamide and the combination of the 2 products at the doses used in monotherapy.
The glucose tolerance test (OGTT) is performed on the conscious animal and consists in administering glucose at a rate of 2 g/kg. The plasmatic glucose clearance is analysed after this glucose load, over 2 hours (0-10-20-30-45-60-90 and 120 min).
In addition to plasmatic glycaemia, insulinaemia is also determined.

Row | SMILES | Plasmatic insulin (0 min) [μU/ml] | Plasmatic glucose (0 min, 5 rats/batch) [mg/dL] | Plasmatic glucose (10 min) [mg/dL] | Plasmatic insulin (10 min) [μU/ml] | Plasmatic glucose (20 min) [mg/dL] | Plasmatic insulin (20 min) [μU/ml] | Plasmatic glucose (30 min) [mg/dL] | Plasmatic insulin (30 min) [μU/ml] | Plasmatic glucose (45 min) [mg/dL] | Plasmatic insulin (45 min) [μU/ml] | Plasmatic glucose (60 min) [mg/dL] | Plasmatic insulin (60 min) [μU/ml] | Plasmatic glucose (90 min) [mg/dL] | Plasmatic insulin (90 min) [μU/ml] | Plasmatic glucose (120 min) [mg/dL] | Plasmatic insulin (120 min) [μU/ml] | Plasmatic glucose AUC | Plasmatic insulin AUC | effect on carbohydrate tolerance (n0STZ rats, OGTT) | further results
1 | N#Cc1ccc(OCCC2SC(=O)NC2=O)cc1 (stereo not shown) [Compound A, 4-[2-(2,4-dioxothiazolidin-5-yl)ethoxy]benzonitrile] | 47.2 | 160 | 321 | 100.8 | 381 | 89.6 | 418 | 84.5 | 424 | 74.6 | 447 | 77 | 419 | 93.8 | 378 | 101.5 | 47702.5 | 10384.25 | little or no effect | decrease observed (carbohydrate tolerance, glucose curve vs control) (acute 12.5 mg/kg, n0STZ rats, OGTT): 6%
2 | COc1ccc(Cl)cc1C(=O)NCCc1ccc(S(=O)(=O)NC(=O)NC2CCCCC2)cc1 [Glibenclamide] | 84.2 | 138 | 312 | 116.9 | 407 | 129.4 | 470 | 105.8 | 520 | 100 | 513 | 88.3 | 507 | 92.5 | 448 | 97.5 | 55027.5 | 11930.75 | little or no effect | increase observed (carbohydrate tolerance, glucose curve vs control) (acute 2 mg/kg, n0STZ rats, OGTT): 6%
